In US20230295087A1, “AGONISTS OF ROR GAMMAt” (BRISTOL-MYERS SQUIBB COMPANY, priority 2019, published 2023):

Biological target: T1, human RORgT (Homo sapiens, UniProt P51449)
T1 construct: expressed in transfected cells
T1 sequence (P51449 267-516): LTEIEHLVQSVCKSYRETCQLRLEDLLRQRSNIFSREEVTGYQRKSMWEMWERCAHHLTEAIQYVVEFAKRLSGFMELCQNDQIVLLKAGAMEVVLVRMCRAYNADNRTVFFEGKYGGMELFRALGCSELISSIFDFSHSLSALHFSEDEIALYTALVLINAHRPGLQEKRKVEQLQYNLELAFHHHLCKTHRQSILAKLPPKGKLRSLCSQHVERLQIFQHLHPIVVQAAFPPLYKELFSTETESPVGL
Test: RORgT Gal4 Luciferase Reporter Gene Assay
Type: cell-based
Details: engineered Jurkat cells overexpressing RORgT (LBD or full length) fused with Gal4 Luc reporter; 18 hours at 37° C.; luminescence
How it was run: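 Jurkat cells expressing Gal4 Luc with either RORgT LBD (aa267-516) or full-length human RORgT, 10,000 cells/well, treated with compound (40 µM to 0.67 nM final, 3-fold dilutions) for 18 h at 37° C. Steady-Glo luminescence read; inhibition of constitutive activity as % signal-window reduction relative to a control compound.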

Row | SMILES | EC50
1 | O=C(C1CCS(=O)(=O)CC1)N1CC[C@@]2(S(=O)(=O)c3ccc(F)cc3)c3ccc(COc4c(F)cccc4Cl)cc3CC[C@@H]12 [Example 33, 4-[(3aR,9bR)-7-[(2-chloro-6-fluorophenoxy)methyl]-9b-(4-fluorobenzenesulfonyl)-1H,2H,3H,3aH,4H,5H,9bH-benzo[e]indole-3-carbonyl]-1λ^6-thiane-1,1-dione] | 10 nM
2 | C[C@]1(C(=O)O)CC[C@H](C(=O)N2CC[C@@]3(S(=O)(=O)c4ccc(F)cc4)c4ccc(OCc5c(F)cccc5Cl)cc4CC[C@@H]23)CC1 [Example 21, (1r,4r)-4-[(3aR,9bR)-7-[(2-chloro-6-fluorophenyl)methoxy]-9b-(4-fluorobenzenesulfonyl)-1H,2H,3H,3aH,4H,5H,9bH-benzo[e]indole-3-carbonyl]-1-methylcyclohexane-1-carboxylic acid] | 10 nM
3 | O=C(O)[C@H]1CC[C@H](C(=O)N2CC[C@@]3(S(=O)(=O)c4ccc(F)cc4)c4ccc(CCc5c(Cl)cccc5Cl)cc4CC[C@@H]23)CC1 [Example 2, (1r,4r)-4-[(3aR,9bR)-7-[2-(2,6-dichlorophenyl)ethyl]-9b-(4-fluorobenzenesulfonyl)-1H,2H,3H,3aH,4H,5H,9bH-benzo[e]indole-3-carbonyl]cyclohexane-1-carboxylic acid] | 6.8 nM
4 | O=C1CC(C(=O)N2CC[C@@]3(S(=O)(=O)c4ccccc4)c4ccc(OCc5c(F)cccc5Cl)cc4CC[C@@H]23)CN1 (stereo partly drawn) [Example 140, 4-[(3aR,9bR)-9b-(benzenesulfonyl)-7-[(2-chloro-6-fluorophenyl)methoxy]-1H,2H,3H,3aH,4H,5H,9bH-benzo[e]indole-3-carbonyl]pyrrolidin-2-one] | 134 nM
5 | CS(=O)(=O)N1CCC(C(=O)N2CC[C@@]3(S(=O)(=O)c4ccc(F)cc4)c4ccc(OCc5c(F)cccc5Cl)cc4CC[C@@H]23)CC1 [Example 164, 4-[(3aR,9bR)-7-[(2-chloro-6-fluorophenyl)methoxy]-9b-(4-fluorobenzenesulfonyl)-1H,2H,3H,3aH,4H,5H,9bH-benzo[e]indole-3-carbonyl]-1-methanesulfonylpiperidine] | 24 nM
6 | O=C(O)[C@H]1CC[C@H](C(=O)N2CC[C@@]3(S(=O)(=O)c4ccc(F)cc4)c4ccc(Oc5c(F)cccc5Cl)cc4CC[C@@H]23)CC1 [Example 37, (1r,4r)-4-[(3aR,9bR)-7-(2-chloro-6-fluorophenoxy)-9b-(4-fluorobenzenesulfonyl)-1H,2H,3H,3aH,4H,5H,9bH-benzo[e]indole-3-carbonyl]cyclohexane-1-carboxylic acid] | 3.3 nM
7 | CN1CCC(C(=O)N2CC[C@@]3(S(=O)(=O)c4ccc(F)cc4)c4ccc(OCc5cc(F)c(F)cc5Cl)cc4CC[C@@H]23)CC1 [Example 212, 4-[(3aR,9bR)-7-[(2-chloro-4,5-difluorophenyl)methoxy]-9b-(4-fluorobenzenesulfonyl)-1H,2H,3H,3aH,4H,5H,9bH-benzo[e]indole-3-carbonyl]-1-methylpiperidine] | 160 nM
8 | CC(=O)N1CCC(C(=O)N2CC[C@@]3(S(=O)(=O)c4ccc(F)cc4)c4ccc(OCc5cc(Cl)ccc5Cl)cc4CC[C@@H]23)CC1 [Example 196, 1-{4-[(3aR,9bR)-7-[(2,5-dichlorophenyl)methoxy] -9b-(4-fluorobenzenesulfonyl)-1H,2H,3H,3aH,4H,5H,9bH-benzo[e]indole-3-carbonyl]piperidin-1-yl}ethan-1-one] | 37 nM
9 | O=C(O)[C@H]1CC[C@H](C(=O)N2CC[C@@]3(S(=O)(=O)c4ccc(F)cc4)c4ccc(OCc5cc(F)ccc5Cl)cc4CC[C@@H]23)CC1 [Example 175, (1r,4r)-4-[(3aR,9bR)-7-[(2-chloro-5-fluorophenyl)methoxy]-9b-(4-fluorobenzenesulfonyl)-1H,2H,3H,3aH,4H,5H,9bH-benzo[e]indole-3-carbonyl]cyclohexane-1-carboxylic acid] | 9.5 nM
10 | Cc1ccccc1Oc1ccc2c(c1)CC[C@H]1N(C(=O)C3CCS(=O)(=O)CC3)CC[C@@]21S(=O)(=O)c1ccc(F)cc1 [Example 49, 4-[(3aR,9bR)-9b-(4-fluorobenzenesulfonyl)-7-(2-methylphenoxy)-1H,2H,3H,3aH,4H,5H,9bH-benzo[e]indole-3-carbonyl]-1λ^6-thiane-1,1-dione] | 1.8 nM
11 | CS(=O)(=O)N[C@@H]1CCCN(C(=O)N2CC[C@@]3(S(=O)(=O)c4ccccc4)c4ccc(OCc5c(Cl)cccc5Cl)cc4CC[C@@H]23)C1 [Example 90, N-[(3R)-1-[(3aR,9bR)-9b-(benzenesulfonyl)-7-[(2,6-dichlorophenyl)methoxy]-1H,2H,3H,3aH,4H,5H,9bH-benzo[e]indole-3-carbonyl]piperidin-3-yl]methanesulfonamide] | 712 nM
12 | O=C(N1CCOCC1)N1CC[C@@]2(S(=O)(=O)c3ccccc3)c3ccc(OCc4c(Cl)cccc4Cl)cc3CC[C@@H]12 [Example 80, 4-[(3aR,9bR)-9b-(benzenesulfonyl)-7-[(2,6-dichlorophenyl)methoxy]-1H,2H,3H,3aH,4H,5H,9bH-benzo[e]indole-3-carbonyl]morpholine] | 102 nM
13 | O=C1CC[C@@H](C(=O)N2CC[C@@]3(S(=O)(=O)c4ccccc4)c4ccc(OCc5c(F)cccc5Cl)cc4CC[C@@H]23)N1 [Example 138, (5S)-5-[(3aR,9bR)-9b-(benzenesulfonyl)-7-[(2-chloro-6-fluorophenyl)methoxy]-1H,2H,3H,3aH,4H,5H,9bH-benzo[e]indole-3-carbonyl]pyrrolidin-2-one] | 8.8 nM
14 | CN1CCC(C(=O)N2CC[C@@]3(S(=O)(=O)c4ccc(F)cc4)c4ccc(OCc5ccc(F)cc5Cl)cc4CC[C@@H]23)CC1 [Example 206, 4-[(3aR,9bR)-7-[(2-chloro-4-fluorophenyl)methoxy]-9b-(4-fluorobenzenesulfonyl)-1H,2H,3H,3aH,4H,5H,9bH-benzo[e]indole-3-carbonyl]-1-methylpiperidine] | 216 nM
15 | Cn1cc(C(=O)N2CC[C@@]3(S(=O)(=O)c4ccccc4)c4ccc(OCc5c(Cl)cccc5Cl)cc4CC[C@@H]23)cn1 [Example 100, 4-[(3aR,9bR)-9b-(benzenesulfonyl)-7-[(2,6-dichlorophenyl)methoxy]-1H,2H,3H,3aH,4H,5H,9bH-benzo[e]indole-3-carbonyl]-1-methyl-1H-pyrazole] | 317 nM
16 | O=C(O)[C@H]1CC[C@H](C(=O)N2CC[C@@]3(S(=O)(=O)c4ccccc4)c4ccc(OCc5c(F)cccc5Cl)cc4CC[C@@H]23)CC1 [Example 142, (1r,4r)-4-[(3aR,9bR)-9b-(benzenesulfonyl)-7-[(2-chloro-6-fluorophenyl)methoxy]-1H,2H,3H,3aH,4H,5H,9bH-benzo[e]indole-3-carbonyl]cyclohexane-1-carboxylic acid] | 13 nM
17 | CC(=O)N1CCC(C(=O)N2CC[C@@]3(S(=O)(=O)c4ccccc4)c4ccc(OCc5c(Cl)cccc5Cl)cc4CC[C@@H]23)CC1 [Example 57, 1-{4-[(3aR,9bR)-9b-(benzenesulfonyl)-7-[(2,6-dichlorophenyl)methoxy]-1H,2H,3H,3aH,4H,5H,9bH-benzo[e]indole-3-carbonyl]piperidin-1-yl}ethan-1-one] | 13 nM
18 | NC(=O)N1CCC(C(=O)N2CC[C@@]3(S(=O)(=O)c4ccccc4)c4ccc(OCc5c(F)cccc5Cl)cc4CC[C@@H]23)CC1 [Example 141, 4-[(3aR,9bR)-9b-(benzenesulfonyl)-7-[(2-chloro-6-fluorophenyl)methoxy]-1H,2H,3H,3aH,4H,5H,9bH-benzo[e]indole-3-carbonyl]piperidine-1-carboxamide] | 10 nM
19 | C[C@]1(C(=O)O)CC[C@H](C(=O)N2CC[C@@]3(S(=O)(=O)c4ccc(F)cc4)c4ccc(OCc5c(F)cccc5C(F)(F)F)cc4CC[C@@H]23)CC1 [Example 25, (1r,4r)-4-[(3aR,9bR)-7-{[2-fluoro-6-(trifluoromethyl)phenyl]methoxy}-9b-(4-fluorobenzenesulfonyl)-1H,2H,3H,3aH,4H,5H,9bH-benzo[e]indole-3-carbonyl]-1-methylcyclohexane-1-carboxylic acid] | 20 nM
20 | [2H]C([2H])([2H])N1C(=O)CC[C@H]1C(=O)N1CC[C@@]2(S(=O)(=O)c3ccccc3)c3ccc(OCc4c(F)cccc4Cl)cc3CC[C@@H]12 [Example 146, (5S)-5-[(3aR,9bR)-9b-(benzenesulfonyl)-7-[(2-chloro-6-fluorophenyl)methoxy]-1H,2H,3H,3aH,4H,5H,9bH-benzo[e]indole-3-carbonyl]-1-(^2H)methylpyrrolidin-2-one] | 6.5 nM
21 | O=C(O)[C@H]1CC[C@](O)(C(=O)N2CC[C@@]3(S(=O)(=O)c4ccc(F)cc4)c4ccc(OCc5c(F)cccc5Cl)cc4CC[C@@H]23)CC1 [Example 23, (1s,4s)-4-[(3aR,9bR)-7-[(2-chloro-6-fluorophenyl)methoxy]-9b-(4-fluorobenzenesulfonyl)-1H,2H,3H,3aH,4H,5H,9bH-benzo[e]indole-3-carbonyl]-4-hydroxycyclohexane-1-carboxylic acid] | 55 nM
22 | CS(=O)(=O)CC(=O)N1CC[C@@]2(S(=O)(=O)c3ccc(F)cc3)c3ccc(OCc4cc(F)ccc4Cl)cc3CC[C@@H]12 [Example 195, 1-[(3 aR,9bR)-7-[(2-chloro-5-fluorophenyl)methoxy]-9b-(4-fluorobenzenesulfonyl)-1H,2H,3H,3aH,4H,5H,9bH-benzo[e]indol-3-yl]-2-methanesulfonylethan-1-one] | 158 nM
23 | O=C(NC1CCOCC1)N1CC[C@@]2(S(=O)(=O)c3ccccc3)c3ccc(OCc4c(Cl)cccc4Cl)cc3CC[C@@H]12 [Example 89, (3aR,9bR)-9b-(benzenesulfonyl)-7-[(2,6-dichlorophenyl)methoxy]-N-(oxan-4-yl)-1H,2H,3H,3aH,4H,5H,9bH-benzo[e]indole-3-carboxamide] | 114 nM
